Patent US4389394A, “Methods for reducing dental caries” (Talres Development (N.A.) N.V., priority 1978, dated 1983)
Entries after “also recorded” stand apart in the source; their conditions may differ.

Tests used:
[1] = West German Offenlegungsschrift No. 2700036; cited from earlier work
S. mutans [2] = assay: (C) Further tests on pH reduction; assay type: cell-based, Streptococcus mutans; settings: for Mean pH: 0.055 molar chlorodeoxy derivative, pooled data for 2, 3 and 4 hours, Duncan procedure
Procedure: (§1) Plain aqueous solutions were used and also solutions containing amino acids (protein hydrolysate) 1% w/v to approximate the buffering effect of natural saliva. Control experiments were effected using no saccharide in order to illustrate the endogenous metabolism of the organism. Each experiment was quadruplicated and was run at 37° C. The pH was measured at 0, 0.5, 1, 1.5,2, 3 and 4 hours.
Twelve sets of tests were carried out in the same way as described above at (A) but using solutions which were 0.055 molar in the respective chlorodeoxy derivative.
Solutions of the following were employed:
(i) Saline, negative control for endogenous metabolism
(ii) Sucrose, positive control
(iii) 6,1',6'-trichloro-6,1',6'-trideoxysucrose, compound no. 7.
(iv) Compound no. 7 plus sucrose.
(v) 1',6'-dichloro-1',6'-dideoxysucrose, compound no. 4
(vi) Compound no. 4 plus sucrose
(vii) 4,1',6'-trichloro-4,1',6'-trideoxygalactosucrose, Compound no. 5.
(viii) Compound no. 5 plus sucrose
(ix) 4,6,6'-trichloro-4,6,6'-trideoxygalactosucrose, Compound no. 6
(x) Compound no. 6 plus sucrose
(xi) 1'-chloro-1'-deoxysucrose, compound no. 1
(xii) Compound no. 1 plus sucrose
The acid production was monitored as before.

S. mutans [3] = assay: (D) Further tests on adherence to teeth; assay type: cell-based, Streptococcus mutans; settings: for % coverage after 0.5 hours / % coverage after 4 hours: glass slide, 0.055 molar, Duncan procedure; for adherence of the cells: statement in words
Procedure: (§2) The extent to which cells of S. mutans adhere to teeth was investigated using a recognized model system. Solutions of the same substances as in (A) were made up, and the degree of deposition of suspended cells on to glass was studied using a "Magiscan" image analyser (Talyer et al., 1978 Praktischen Metallographie, Sonderbande 8: 433-442).
While recording the pH during the tests of (C), the adherence was monitored in the same way as in (B). The percentage coverage of a glass slide was determined at 0.5 and 4 hours for each solution, and the results treated by the Duncan procedure.

S. mutans [4] = assay: Scanning electron microscopy of glass with adherent cells; assay type: cell-based, Streptococcus mutans; settings: sucrose medium; qualitative
[5] = system: Streptococcus mutans NCTC 10832; assay: (A) Effect on reduction of pH by Streptococcus mutans; assay type: cell-based; settings: for pH: 0.05 molar each saccharide, 37° C; for Mean pH: Duncan Procedure sub-sets, amino acids where named in the solution
Description: Mouth flora such as S. mutans cause dental caries by producing acid which erodes the tooth enamel. The cells exude a polysaccharide which firmly adheres them to the tooth surfaces as plaque, thus enhancing the local erosion by the acid. The effect of chlorodeoxysucroses on acid production by S. mutans in sucrose solutions was studied in comparison with the effect produced by xylitol, an agent proposed as a caries preventative.
as §1

S. mutans [6] = assay: (B) Adherence to teeth: deposition of suspended cells on to glass (Magiscan image analyser); assay type: cell-based, Streptococcus mutans; settings: for Coverage (%) after 0.5 h / Coverage (%) after 4.0 h: mean of 40 determinations
Description: as §2
Each reading is the mean of 40 determinations.

dental plaque = assay: (F) Human volunteers: acid production by dental plaque after mouthrinse (glucose pre-rinse); assay type: in vivo; settings: statement in words
Procedure: The compound 4,1',6'-trichloro-4,1',6'-trideoxygalactosucrose was selected as a suitable candidate for further testing. A mouthrinse in accordance with the invention was prepared using the selected compound as active ingredient. The level of the active ingredient was initially chosen to be such that the mouthrinse tasted the same as a 15% w/v solution of sucrose.
Six subjects were used, who were first acquainted with the available toxicological data and who subsequently agreed to take part in the tests. The subjects were instructed not to clean their teeth on their day of testing. At sampling time, 0 min, each subject took 5% w/v glucose mouthrinse for 2 minutes, then waited a further 8 minutes before the buccal and lingual plaque of one side of the jaw (upper and lower) was removed and placed on aluminium foil and sealed. […]
Samples (0.2 ml) were tested after admixture with 0.1 ml 5% w/v glucose and 0.2 ml sterile saliva. The pH was monitored in quadruplicated tests.
Pooling of data at different times was not justifiable, and the Duncan procedure could not be followed. Data was therefore analysed by computer using an `Analysis of Variance` program and a `Description of Populations` program.

[7] = 0.5 hours, in the presence of sucrose

Compound: OC[C@@]1(O[C@H]2O[C@H](CCl)[C@H](Cl)[C@H](O)[C@H]2O)O[C@H](CCl)[C@@H](O)[C@@H]1O [Compound no. 6, 4,6-dichloro-4,6-dideoxy-α-D-galactopyranosyl-6-chloro-6-deoxy-β-D-fructofuranoside]
- sweetness relative to sucrose [1]: do not possess such strong sweetening action
- Mean pH (S. mutans [2]): 5.20
- % coverage after 0.5 hours (S. mutans [3]): 51.6%
- % coverage after 4 hours (S. mutans [3]): 70.8%

Compound: OC[C@H]1O[C@H](O[C@]2(CCl)O[C@H](CCl)[C@@H](O)[C@@H]2O)[C@H](O)[C@@H](O)[C@@H]1O [Compound no. 4, 1',6'-dichloro-1',6'-dideoxysucrose]
- sweetness relative to sucrose [1]: many times sweeter than sucrose
- Mean pH (S. mutans [2]): 5.48
- adherence of the cells (S. mutans [3]; [7]): falling in the sub-set g which includes sucrose itself
- adherence of the cells (S. mutans [3]; 4 hours): did not reduce the adherence
- % coverage after 0.5 hours (S. mutans [3]): 51.6%
- % coverage after 4 hours (S. mutans [3]): 70.3%

Compound: OC[C@H]1O[C@@](CCl)(O[C@H]2O[C@H](CO)[C@@H](O)[C@H](O)[C@H]2O)[C@@H](O)[C@@H]1O [Compound no. 1, 1'-chloro-1'-deoxysucrose]
- sweetness relative to sucrose [1]: do not possess such strong sweetening action
- Mean pH (S. mutans [2]): 5.09
- adherence of the cells (S. mutans [3]; [7]): most active compounds at 0.5 hours
- adherence of the cells (S. mutans [3]; 4 hours): the most active
- % coverage after 0.5 hours (S. mutans [3]): 35.6%
- % coverage after 4 hours (S. mutans [3]): 52.3%

Compound: O[C@@H]1[C@@H](O)[C@@H](O[C@]2(CCl)O[C@H](CCl)[C@@H](O)[C@@H]2O)O[C@H](CCl)[C@H]1Cl [compound 9, 4,6,1',6'-tetrachloro-4,6,1',6'-tetradeoxysucrose]
- sweetness relative to sucrose [1]: many times sweeter than sucrose

Compound: O[C@@H]1[C@@H](O)[C@@H](O[C@]2(CCl)O[C@H](CCl)[C@@H](O)[C@@H]2O)O[C@H](CCl)[C@@H]1Cl [compound 8, 4,6-dichloro-4,6-dideoxy-α-D-galactopyranosyl-1,6-dichloro-1,6-dideoxy-β-D-fructofuranoside]
- sweetness relative to sucrose [1]: many times sweeter than sucrose

Compound: OC[C@@H](O)[C@H](O)[C@@H](O)CO [Xylitol, xylitol]
- extracellular coating and size of clumps of adherent cells (S. mutans [4]): No such effect was observed
- pH ([5]; 0 h, no amino acids): 5.94
- pH ([5]; 0.5 h, no amino acids): 5.50
- pH ([5]; 1.0 h, no amino acids): 5.42
- pH ([5]; 1.5 h, no amino acids): 5.39
- pH ([5]; 2.0 h, no amino acids): 5.32
- pH ([5]; 3.0 h, no amino acids): 5.38
- pH ([5]; 4.0 h, no amino acids): 5.37
- Mean pH [5]: 5.36
- effect on acid production ([5]; statement in words): never had a statistically significally effect; also recorded: non-cariogenic but not anti-cariogenic; also recorded: gave about the same mean pH as when carbohydrate was excluded
- degree of adhesion (S. mutans [6]; Mann Whitney U-test, statement in words): appeared to cause an increase rather than a decrease
- Coverage (%) after 0.5 h (S. mutans [6]; no amino acid): 42.31%
- Coverage (%) after 4.0 h (S. mutans [6]; no amino acid): 74.21%

Compound: OC[C@H]1O[C@@](CCl)(O[C@H]2O[C@H](CO)[C@H](Cl)[C@H](O)[C@H]2O)[C@@H](O)[C@@H]1O [compound 3, 4-chloro-4-deoxy-α-D-galactopyranosyl-1-chloro-1-deoxy-β-D-fructofuranoside]
- sweetness relative to sucrose [1]: many times sweeter than sucrose

Compound: O[C@@H]1[C@@H](O)[C@@H](O[C@]2(CCl)O[C@H](CCl)[C@@H](O)[C@@H]2O)O[C@H](CCl)[C@H]1O
- antiacidogenic effect on plaque (dental plaque): Statistically conclusive proof that the mouthrinse was evincing an anti-acidogenic effect was not available
- yield of plaque as perceived by subjects (dental plaque): increased the yield of plaque

Compound: OC[C@H]1O[C@@](CO)(O[C@H]2O[C@H](CO)[C@H](Cl)[C@H](O)[C@H]2O)[C@@H](O)[C@@H]1O [compound 2, 4-chloro-4-deoxy-α-D-galactopyranosyl-β-D-fructofuranoside]
- sweetness relative to sucrose [1]: do not possess such strong sweetening action

Compound: O[C@@H]1[C@@H](O)[C@@H](O[C@]2(CCl)O[C@H](CCl)[C@@H](O)[C@@H]2O)O[C@H](CCl)[C@H]1O [Compound no. 7, 6,1',6'-trichloro-6,1',6'-trideoxysucrose]
- sweetness relative to sucrose [1]: many times sweeter than sucrose
- Mean pH (S. mutans [2]): 6.48
- effect on acid production / pH (S. mutans [2]; statement in words, pooled 2, 3 and 4 hours): especially effective
- adherence of the cells (S. mutans [3]; [7]): most active compounds at 0.5 hours
- adherence of the cells (S. mutans [3]; 4 hours): the most active
- % coverage after 0.5 hours (S. mutans [3]): 29.7%
- % coverage after 4 hours (S. mutans [3]): 54.2%

Compound: OC[C@H]1O[C@@](CO)(O[C@H]2O[C@H](CO)[C@@H](O)[C@H](O)[C@H]2O)[C@@H](O)[C@@H]1O [Sucrose, sucrose]
- Mean pH (S. mutans [2]): 4.33
- extracellular coating and size of clumps of adherent cells (S. mutans [4]): characteristically clumped and were coated with extracellular polysaccharide
- % coverage after 0.5 hours (S. mutans [3]): 51.2%
- % coverage after 4 hours (S. mutans [3]): 69.2%
- pH ([5]; 0 h, no amino acids): 5.69
- pH ([5]; 0 h, with amino acids 1% w/v): 5.98
- pH ([5]; 0.5 h, no amino acids): 4.57
- pH ([5]; 0.5 h, with amino acids 1% w/v): 5.55
- pH ([5]; 1.0 h, no amino acids): 4.57
- pH ([5]; 1.0 h, with amino acids 1% w/v): 5.36
- pH ([5]; 1.5 h, no amino acids): 4.58
- pH ([5]; 1.5 h, with amino acids 1% w/v): 5.10
- pH ([5]; 2.0 h, no amino acids): 4.54
- pH ([5]; 2.0 h, with amino acids 1% w/v): 5.00
- pH ([5]; 3.0 h, no amino acids): 4.63
- pH ([5]; 3.0 h, with amino acids 1% w/v): 4.92
- pH ([5]; 4.0 h, no amino acids): 4.55
- pH ([5]; 4.0 h, with amino acids 1% w/v): 4.79
- Mean pH [5]: 4.57
- Coverage (%) after 0.5 h (S. mutans [6]; no amino acid): 37.28%
- Coverage (%) after 4.0 h (S. mutans [6]; no amino acid): 65.83%
- Coverage (%) after 0.5 h (S. mutans [6]; with amino acid): 31.89%
- Coverage (%) after 4.0 h (S. mutans [6]; with amino acid): 75.95%
